In this data set the test system is liver grafts. Type of data set: in vivo. The conditions noted are these: content in ET-K+db-cAMP (2 mM) preservation solution, liver transplanted without final rinsing. How it is done: Eight-week-old inbred male Lewis rat (SLC) was housed in a chip-bedded cage at room temperature under a 12 hr light/dark cycle and given free access to a standard chow diet and water before operation.
Group I: UW solution group (n=8), Group II: New ET-K solution group (n=6), Group III: modified New ET-K solution group (n=8). The liver was preserved under cooling in each preservation solution for 24 hr, and then syngeneic liver transplantation was performed. Rats were randomly assigned to each group.
In the UW group, the blood in the donor liver portal vein blood vessel was first replaced with 10 ml of Ringer's solution, and then the blood vessel was perfused with 10 ml of UW solution. In the New ET-K group and the modified New ET-K group, the blood in the donor liver portal vein blood vessel was directly replaced with 20 ml of each preservation solution. In all groups, the perfusion with the preservation solution was performed at a pressure of 15 cmH2O. Then, liver grafts were preserved in respective preservation solutions at 4° C. for 24 hr. […]
In the same manner as in Example 1, syngenic liver transplantation was performed on 8-week-old inbred male Lewis rats (SLC), and the survival rate after transplantation of the liver preserved in preservation solutions containing various concentrations of nitroglycerin (NTG) was evaluated. […]

This note sets out measurements from patent US8512940B2, “Method for preserving liver in a solution comprising dibutyryl cAMP” (Otsuka Pharmaceutical Factory, Inc., priority 2005, dated 2013).

Consider `O=[N+]([O-])OCC(CO[N+](=O)[O-])O[N+](=O)[O-]` [nitroglycerin], for which the “nitroglycerin content at which toxicity due to nitroglycerin is hardly expressed” value is “not more than 0.0044 mM”.
